PubChem BioAssay (NCI)
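Five concentrations, 48 hours, 96-well plates. The concentration for 50% growth inhibition is given as GI50. TGI marks complete inhibition of growth.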

Tests used:
Assay in all cases: NCI-60 cell line screen, 48 h
[1] = tested on: UO-31 renal
[2] = tested on: HL-60(TB) leukemia
[3] = tested on: OVCAR-5 ovarian
[4] = tested on: HCC-2998 colon
[5] = tested on: 786-0 renal
[6] = tested on: SN12C renal
[7] = tested on: SF-539 CNS
[8] = tested on: U251 CNS
[9] = tested on: CCRF-CEM leukemia
[10] = tested on: NCI/ADR-RES ovarian
[11] = tested on: HOP-62 NSCLC
[12] = tested on: PC-3 prostate
[13] = tested on: OVCAR-8 ovarian
[14] = tested on: A498 renal
[15] = tested on: UACC-62 melanoma
[16] = tested on: MCF7 breast
[17] = tested on: SF-268 CNS
[18] = tested on: NCI-H460 lung
[19] = tested on: LOX IMVI melanoma
[20] = tested on: SF-295 CNS
[21] = tested on: COLO 205 colon
[22] = tested on: RXF 393 renal
[23] = tested on: DU-145 prostate
[24] = tested on: SNB-19 CNS
[25] = tested on: UACC-257 melanoma
[26] = tested on: MDA-MB-435
[27] = tested on: K-562 leukemia
[28] = tested on: HOP-92 NSCLC
[29] = tested on: EKVX NSCLC
[30] = tested on: SW-620 colon

Structure (SMILES): COc1cccc(/C=N/NC(=O)c2ccc3nc(-c4ccc(Cl)cc4)[nH]c3c2)c1O
- GI50 [1]: 1010 nM
- TGI [1]: > 48 µM
- GI50 [2]: 1070 nM
- TGI [2]: 4.63 µM
- GI50 [3]: 1850 nM
- TGI [3]: 5.08 µM
- GI50 [4]: 800 nM
- TGI [4]: 2200 nM
- GI50 [5]: 1060 nM
- TGI [5]: 2520 nM
- GI50 [6]: 1080 nM
- TGI [6]: 2590 nM
- GI50 [7]: 428 nM
- TGI [7]: 1020 nM
- GI50 [8]: 1500 nM
- TGI [8]: 3.08 µM
- GI50 [9]: 425 nM
- TGI [9]: 3.77 µM
- GI50 [10]: > 100 µM
- TGI [10]: > 100 µM
- GI50 [11]: 570 nM
- TGI [11]: 1850 nM
- GI50 [12]: 1350 nM
- TGI [12]: 4.67 µM
- GI50 [13]: 1580 nM
- TGI [13]: 4.39 µM
- GI50 [14]: 5 µM
- TGI [14]: 11.9 µM
- GI50 [15]: 607 nM
- TGI [15]: 1770 nM
- GI50 [16]: 660 nM
- TGI [16]: 3.38 µM
- GI50 [17]: 484 nM
- TGI [17]: 1520 nM
- GI50 [18]: 1340 nM
- TGI [18]: 2770 nM
- GI50 [19]: 1180 nM
- TGI [19]: 2530 nM
- GI50 [20]: 2200 nM
- TGI [20]: 5.46 µM
- GI50 [21]: 1580 nM
- TGI [21]: 3.56 µM
- GI50 [22]: 972 nM
- TGI [22]: 2460 nM
- GI50 [23]: 1340 nM
- TGI [23]: 3.28 µM
- GI50 [24]: 1310 nM
- TGI [24]: 2590 nM
- GI50 [25]: 1190 nM
- TGI [25]: 3.53 µM
- GI50 [26]: 1010 nM
- TGI [26]: 2830 nM
- GI50 [27]: 332 nM
- GI50 [28]: 670 nM
- TGI [28]: 2400 nM
- GI50 [29]: 2120 nM
- TGI [29]: 9.8 µM
- GI50 [30]: 1320 nM
- TGI [30]: 3.52 µM
